Active and inactive are the calls of the source. The calls are words filed in the database; no cut-off is given here.
Assays:
Type in all cases: functional
Rattus norvegicus [1] = experiment: Anti-inflammatory activity in Rattus norvegicus Wistar albino (rat) assessed as inhibition of carrageenan-induced paw edema at 10 mg/kg, ip administered for 30 min prior to carrageenan challenge measured at 1 hr relative to control; conditions: route intraperitoneal
Rattus norvegicus [2] = experiment: Anti-inflammatory activity in Rattus norvegicus Wistar albino (rat) assessed as inhibition of carrageenan-induced paw edema at 10 mg/kg, ip administered for 30 min prior to carrageenan challenge measured at 4 hr relative to control; conditions: route intraperitoneal
Rattus norvegicus [3] = experiment: Anti-inflammatory activity in Rattus norvegicus Wistar albino (rat) assessed as inhibition of carrageenan-induced paw edema at 10 mg/kg, ip administered for 30 min prior to carrageenan challenge measured at 3 hr relative to control; conditions: route intraperitoneal
Rattus norvegicus [4] = experiment: Anti-inflammatory activity in Rattus norvegicus Wistar albino (rat) assessed as inhibition of carrageenan-induced paw edema at 10 mg/kg, ip administered for 30 min prior to carrageenan challenge measured at 2 hr relative to control; conditions: route intraperitoneal
Rattus norvegicus [5] = experiment: Anti-inflammatory activity in Rattus norvegicus Wistar albino (rat) assessed as inhibition of carrageenan-induced paw edema at 50 mg/kg, po administered for 30 min prior to carrageenan challenge measured at 4 hr relative to control
Rattus norvegicus [6] = experiment: Anti-inflammatory activity in Rattus norvegicus Wistar albino (rat) assessed as inhibition of carrageenan-induced paw edema at 50 mg/kg, po administered for 30 min prior to carrageenan challenge measured at 2 hr relative to control
Rattus norvegicus [7] = experiment: Anti-inflammatory activity in Rattus norvegicus Wistar albino (rat) assessed as inhibition of carrageenan-induced paw edema at 50 mg/kg, po administered for 30 min prior to carrageenan challenge measured at 1 hr relative to control
Rattus norvegicus [8] = experiment: Anti-inflammatory activity in Rattus norvegicus Wistar albino (rat) assessed as inhibition of carrageenan-induced paw edema at 50 mg/kg, po administered for 30 min prior to carrageenan challenge measured at 3 hr relative to control

| Structure (SMILES) | inhibition in vivo at 50 mg/kg (Rattus norvegicus [5]) [%] | inhibition in vivo at 50 mg/kg (Rattus norvegicus [6]) [%] | inhibition in vivo at 50 mg/kg (Rattus norvegicus [7]) [%] | inhibition in vivo at 50 mg/kg (Rattus norvegicus [8]) [%] | also measured |
| --- | --- | --- | --- | --- | --- |
| COc1ccc2c(c1)c(CC(=O)O)c(C)n2C(=O)c1ccc(Cl)cc1 [INDOMETHACIN] |  |  |  |  | inhibition in vivo at 10 mg/kg (Rattus norvegicus [1]): 70%; inhibition in vivo at 10 mg/kg (Rattus norvegicus [2]): 75%; inhibition in vivo at 10 mg/kg (Rattus norvegicus [3]): 78%; inhibition in vivo at 10 mg/kg (Rattus norvegicus [4]): 78% |
| NS(=O)(=O)c1ccc2nc(-n3nc(C(F)(F)F)cc3-c3ccco3)sc2c1 | 54 | 46 | 27 | 61 |  |
| COc1ccc(-c2cc(C(F)(F)F)nn2-c2nc3ccc(S(N)(=O)=O)cc3s2)cc1 | 53 | 31 | 42 | 60 |  |
| NS(=O)(=O)c1ccc2nc(-n3nc(C(F)(F)F)cc3-c3ccc(Cl)cc3)sc2c1 | 42 | 42 | 44 | 61 |  |
| NS(=O)(=O)c1ccc2nc(-n3nc(C(F)(F)F)cc3-c3ccc(F)cc3)sc2c1 | 50 | 48 | 54 | 64 |  |
| Cc1ccc(-c2cc(C(F)(F)F)nn2-c2nc3ccc(S(N)(=O)=O)cc3s2)cc1 | 52 | 38 | 35 | 56 |  |
| NS(=O)(=O)c1ccc2nc(-n3nc(C(F)(F)F)cc3-c3ccc4ccccc4c3)sc2c1 | 20 | 27 | 30 | 53 |  |
| NS(=O)(=O)c1ccc2nc(-n3nc(C(F)(F)F)cc3-c3cccs3)sc2c1 | 15 | 26 | 5 | 49 |  |
| NS(=O)(=O)c1ccc2nc(-n3nc(C(F)(F)F)cc3-c3ccc(Br)cc3)sc2c1 | 43 | 56 | 45 | 60 |  |
| NS(=O)(=O)c1ccc2nc(-n3nc(C(F)(F)F)cc3-c3ccccc3)sc2c1 | 17 | 48 | 32 | 54 |  |
| Cc1ccc(-c2cc(C(F)(F)F)n(-c3nc4ccc(S(N)(=O)=O)cc4s3)n2)cc1 |  |  |  |  | inhibition (Rattus norvegicus [5]): inactive; inhibition (Rattus norvegicus [6]): inactive; inhibition (Rattus norvegicus [7]): inactive; inhibition (Rattus norvegicus [8]): inactive |
